Where “and” joins values, the source holds several entries; their conditions need not be identical. Equal entries are not always repeated. Where two headings read alike, the source gives them in different places.
Columns and labels:
ETA/ETB receptor = assay: ETA/ETB selectivity (specificity); assay type: biochemical; settings: ETA versus ETB, rating in words
Text: (§1) In the above table, the physicochemical data, e.g., solubility, were obtained following standard protocols known in the field (see, e.g., Reis et al., Mini Rev Med Chem., 2010, 10(11):1071-6; Avdeef et al., Expert Opin Drug Metab Toxicol., 2005, 1(2):325-42; Bharate et al., Comb Chem High Throughput Screen., 2016, 19(6):461-9; and Jain et al., J Pharm Biomed Anal., 2013, 86:11-35); and the biochemical data, i.e., potency for ETA/ETB, were obtained following the protocols known in the field (see, e.g., Kirkby et al., Br J Pharmacol., 2008, 153(6):1105-19; and Maguire et al., Br J Pharmacol., 2014, 171(24):5555-72).

ETA receptor = biological target: T1, ETA receptor (Homo sapiens, UniProt P25101); assay: Functional potency for ETA receptor; assay type: biochemical; settings: rating in words
T1 sequence (P25101 21-427): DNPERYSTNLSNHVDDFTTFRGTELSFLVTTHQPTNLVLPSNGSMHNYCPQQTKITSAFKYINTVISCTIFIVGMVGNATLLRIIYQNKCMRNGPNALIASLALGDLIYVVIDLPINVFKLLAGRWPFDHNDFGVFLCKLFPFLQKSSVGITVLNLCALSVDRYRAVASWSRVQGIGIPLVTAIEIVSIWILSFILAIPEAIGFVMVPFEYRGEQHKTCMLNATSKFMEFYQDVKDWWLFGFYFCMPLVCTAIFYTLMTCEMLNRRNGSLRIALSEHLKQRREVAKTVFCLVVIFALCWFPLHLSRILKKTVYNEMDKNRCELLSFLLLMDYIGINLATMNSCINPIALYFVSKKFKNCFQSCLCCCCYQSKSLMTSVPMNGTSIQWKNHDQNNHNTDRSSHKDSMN
Text: as §1

[1] = test system: elevated intraocular pressure (IOP); assay: Morrison's rat model of glaucoma (elevated IOP); assay type: in vivo, Brown Norway rats; settings: topical eye drops 100 μg per dose, five days a week, four weeks
Text: Adult male and female retired breeder Brown Norway rats (approximate age groups of 8 to 11 months) were obtained from Envigo (Indianapolis, Ind.). Baseline IOP measurements and pattern electroretinogram (PERG) amplitudes were collected prior to the surgery for elevation of IOP (to ensure that the IOP and PERG amplitudes were in the expected range of values). IOP was elevated in one eye (left eye) of the rats, while the corresponding right eyes served as contralateral controls. The Morrison method to elevate IOP in rats was carried out by injection of 50 μL of hypertonic saline through the episcleral veins to sclerose the trabecular meshwork. IOP was measured twice a week throughout the entire duration of the experiment. […] After detecting an elevation of IOP for two consecutive days, topical administration of eye drops (20 μL (100 μg) per dose of the tested compounds in the IOP elevated eye) was commenced and carried out for five days a week for a total of four weeks. In the 4th week of treatment, PERG analysis was carried out and rats were sacrificed by an overdose of pentobarbital (Fatal-Plus). Aqueous humor was collected from the rat eyes, frozen and shipped for analysis. Retinal flat mounts were prepared, immunostained with the RGC marker, Brn3a antibody and surviving RGCs were counted in two eccentricities (central and peripheral). For this study, the Morrison's model was used to induce ocular hypertension in adult male retired breeder Brown Norway rats as previously described by Morrison et al., (Morrison J C, Moore […], Gold […], Johnson E C. A rat model of chronic pressure-induced optic nerve damage. Exp Eye Res. 1997; 64(1):85-96). The immunostained retinal flat mounts were obtained to measure the retinal ganglion cell (RGC) counts. To obtain immunostained retinal flat mounts, the animals were euthanized after the treatments and then their eyes were enucleated. The eye cups were fixed overnight at 4° C. in 4% paraformaldehyde (PFA) and retinal flat mounts were prepared for collecting images. The retinal ganglion cell (RGC) counting was conducted using the images of immunostained retinal flat mounts. The images were uploaded to ImageJ, a photo editor designed for biology research (Rasband, 1997-2018) and the labeled retinal ganglion cells were counted manually in two eccentricities (central and peripheral). […] Pattern ERG (PERG) was used to assess the RGC function. […] Briefly, PERG signals were acquired from a DTL-plus electrode placed on the lower part of the corneal surface and the PERG waves were analyzed using the EMWIN software (LKC). The difference between the amplitude of the major positive (P1) and negative (N2) waves were calculated to […] amplitude.

[2] = Pharmacokinetics after topical or oral administration in the rat; assay type: in vivo, Brown Norway rats
Experimental: After the administrations, the animals (N=2) were euthanized at different time points (e.g. 4 and 8 hours) and tissues were collected for analysis. List of tissues collected include plasma, retina/retinal pigment epithelium (RPE)/choroid, vitreous humor and aqueous humor.

ETB receptor = biological target: T2, ETB receptor (Homo sapiens, UniProt P24530); assay: Functional potency for ETB receptor; assay type: biochemical
T2 sequence (P24530 27-442): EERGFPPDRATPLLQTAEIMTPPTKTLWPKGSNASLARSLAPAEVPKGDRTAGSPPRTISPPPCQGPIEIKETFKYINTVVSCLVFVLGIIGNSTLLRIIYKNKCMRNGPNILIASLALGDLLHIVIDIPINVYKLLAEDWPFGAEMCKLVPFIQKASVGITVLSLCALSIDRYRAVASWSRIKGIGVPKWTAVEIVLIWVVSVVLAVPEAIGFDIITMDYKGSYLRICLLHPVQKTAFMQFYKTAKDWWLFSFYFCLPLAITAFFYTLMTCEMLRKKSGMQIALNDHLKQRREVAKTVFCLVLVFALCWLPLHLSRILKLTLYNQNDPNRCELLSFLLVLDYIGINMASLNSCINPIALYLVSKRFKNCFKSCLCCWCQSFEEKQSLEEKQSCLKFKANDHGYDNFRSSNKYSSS
Text: as §1

LogD = assay type: physicochemical; settings: pH 7.4
Text: as §1

Stability in solid state = assay type: physicochemical; settings: 2 h @ l25° C.
Text: as §1

Solubility = assay type: physicochemical
Text: as §1

Permeability (PAMPA) = assay type: in vitro ADME; settings: rating in words
Text: as §1

CCCCCS(=O)(=O)N(CCC)CCN1C[C@H](c2ccc3c(c2)OCO3)[C@@H](C(=O)O)[C@@H]1c1ccc(OC)c(F)c1 [A-182086, (2R,3R,4S)-4-(2H-1,3-benzodioxol-5-yl)-2-(3-fluoro-4-methoxyphenyl)-1-[2-(N-propylpentane-1-sulfonamido)ethyl]pyrrolidine-3-carboxylic acid]
Specificity (rating) (ETA/ETB receptor): Low specificity | Functional Potency for ETA and ETB Receptors (rating) (ETA receptor): High potency | RGC function, pattern electroretinogram (PERG) changes [1]: maintained RGC function | Retinal ganglion cell (RGC) counts, peripheral retina [1]: prevented RGC loss | Detection in retina/RPE/choroid ([2]; oral, 50 mg/kg): detectable | Detection in retina/RPE/choroid, aqueous humor and vitreous humor ([2]; topical eye drop 100 μg, 4 and 8 hours post-administration): detected | IC50 (ETB receptor): 3.48 nM | logD (LogD): 2.3 | Stability in Solid State (rating) (Stability in solid state): unstable | Stability in Solid State, remaining (Stability in solid state): about 87% remaining/ | solubility (Solubility; aqueous buffer, pH 7, amorphous form, read-out: Solubility at pH 7): 173 µg/mL and 298 µM | solubility (Solubility; ethyl acetate, organic solvent or mixture, read-out: Solubility in Ethyl Acetate): > 10600 µg/mL and > 18400 µM | Solubility in Ethyl Acetate (rating) (Solubility; ethyl acetate, rating in words): Good | solubility (Solubility; pH 2, simulated gastric fluid, read-out: Solubility at pH 2): 92.5 µg/mL and 160 µM | Permeability (rating) (Permeability (PAMPA)): Mid-High
